From patent US20240042015A1 (Orna Therapeutics, Inc., priority 2020, published 2024) come the findings set out here.

“Also recorded” adds a separate entry of the source.

The test system of one experiment is CD-1 or c57BL/6J mice. Kind of experiment: In vivo IVIS analysis of FLuc circRNA LNPs (whole body and ex vivo organs). As to conditions: for spleen to liver ratios: ex vivo IVIS analysis of tissues. The method, then:
Lipid Nanoparticles (LNPs) were formed using a Precision Nanosystems Ignite instrument with a ‘NextGen’ mixing chamber. […] A 3:1 aqueous to ethanol mixing ratio was used. The formulated LNP then were dialyzed in 1 L of water and exchanged 2 times over 18 hours. Dialyzed LNPs were filtered using 0.2 µm filter. Prior to in vivo dosing, LNPs were diluted in PBS. LNP sizes were determined by dynamic light scattering. A cuvette with 1 mL of 20 μg/mL LNPs in PBS (pH 7.4) was measured for Z-average using the Malvern Panalytical Zetasizer Pro. The Z-average and polydispersity index were recorded.
Lipid Nanoparticles (LNPs) were formed using a Precision Nanosystems Ignite instrument with a ‘NextGen’ mixing chamber. […] A 3:1 aqueous to ethanol mixing ratio was used. The formulated LNPs were then dialyzed in 1 L of water and exchanged 2 times over 18 hours. Dialyzed LNPs were filtered using 0.2 µm filter. Prior to in vivo dosing, LNPs were diluted in PBS. LNP sizes were determined by dynamic light scattering. A cuvette with 1 mL of 20 μg/mL LNPs in PBS (pH 7.4) was measured for Z-average using the Malvern Panalytical Zetasizer Pro. The Z-average and polydispersity index were recorded.
Lipid Nanoparticles (LNPs) were formed using a Precision Nanosystems Ignite instrument with a ‘NextGen’ mixing chamber. […] A 3:1 aqueous to ethanol mixing ratio was used. The formulated LNPs were then dialyzed in 1 L of 1×PBS and exchanged 2 times over 18 hours. Dialyzed LNPs were filtered using 0.2 µm filter. Prior to in vivo dosing, LNPs were diluted in PBS. LNP sizes were determined by dynamic light scattering. A cuvette with 1 mL of 20 μg/mL LNPs in PBS (pH 7.4) was measured for Z-average using the Malvern Panalytical Zetasizer Pro. The Z-average and polydispersity index were recorded.
Female CD-1 or female c57BL/6J mice ranging from 22-25 g were dosed at 0.5 mg/kg RNA intravenously. Six hours after injection, mice were injected intraperitoneally with 200 μL of D-luciferin at 15 mg/mL concentration. 5 minutes after injection, mice were anesthetized using isoflurane, and placed inside the IVIS Spectrum In Vivo Imaging System (Perkin Elmer) with dorsal side up. Post 10 minutes injection, mice were scanned for luminescence. Mice were euthanized and organs were extracted within 25 minutes of luciferin injection to scan for luminescence in liver, spleen, kidneys, lungs, and heart. Images (FIGS. 33A-B, 34A-B, 35A-B) were analyzed using Living Images (Perkin Elmer) software. Regions of interest were drawn to obtain flux and average radiance and analyzed for biodistribution of protein expression (FIG. 32A-B).

A further experiment concerns splenic immune cells. Kind of experiment: In vivo Cre circRNA LNP transfection in Ai9 Cre reporter mice, tdTomato+ splenic immune cells. As to conditions: 0.5 mg/kg RNA intravenously, 48 hr. The protocol: Circular RNAs encoding Cre recombinase (Cre) are encapsulated into lipid nanoparticles as previously described. Female, 6-8 week old B6.Cg-Gt(ROSA)26Sortm9(CAG-tdTomato)Hze/J (Ai9) mice were dosed with lipid nanoparticles at 0.5 mg/kg RNA intravenously. Fluorescent tdTomato protein was transcribed and translated in Ai9 mice upon Cre recombination, meaning circular RNAs have been delivered to and translated in tdTomato+ cells. After 48 hr, mice were euthanized and the spleens were harvested, processed into a single cell suspension, and stained with various fluorophore-conjugated antibodies for immunophenotyping via flow cytometry.
Ai9 mice injected with PBS represented background tdTomato fluorescence.
FIG. 45C illustrates the proportion of additional splenic immune cell populations expressing tdTomato with Lipids 10a-27 and 10a-26 (mean+std. dev., n=3), which also include NK cells (NKp46+, TCR-B−), classical monocytes (CD11b+, Ly-6G−, Ly-6C_hi), nonclassical monocytes (CD11b+, Ly-6G−, Ly-6C_lo), neutrophils (CD11b+, Ly-6G+), and dendritic cells (CD11c+, MHC-II+).
Ai9 mice (B6.Cg-Gt(ROSA)26Sortm9(CAG-tdTomato)Hze/J, female, 6-8 weeks, n=3 per group) were injected i.v. with 0.5 mg/kg Cre circRNA LNPs or PBS. Ai9 mice transcribe and translate the fluorescent reporter tdTomato upon Cre recombination; meaning cells which are tdTomato+ have successfully been transfected with Cre circRNA. After 48 hours, mice were euthanized and their spleens were collected and manually processed into single cell suspensions. The splenocytes were stained for dead cells (LiveDead Fixable Aqua, Thermo) and with anti-mouse antibodies (TCR-B chain, BV421, H57-597; CD45, BV711, 30-F11; CD11b, BV785, ICRF44; NKp46, AF647, 29A1.4; CD19, APC/750, 6D5; TruStain FcX, 93; all antibodies from Biolegend) at 1:200 ratio. Flow cytometry was performed using an Attune Nxt Flow Cytometer (Thermo).

The subject of a further experiment is primary human T cells. Kind of experiment: LNP transfection of primary human activated T cells with FLuc circRNA with or without ApoE3. The experiment is classed as cell-based. The conditions noted are these: 4 independent donors. The protocol: Primary human T cells from independent donors were stimulated with aCD3/aCD28 and allowed to proliferate for 6 days in the presence of human serum and IL-2. Then, 100,000 cells were plated in a 96 well plate and LNPs containing circRNA coding for Firefly Luciferase (FLuc) were added to the cells at 200 ng RNA/well with or without Apolipoprotein E3 (ApoE3). After 24-hour incubation, luminescence was quantified using the Bright-Glo Luciferase Assay System (Promega) according to manufacturer's instructions and background luminescence from cells not treated with LNPs was subtracted. […] (See Example 70 for LNP formulation procesure, e.g., for 10a-27 (5.7A), 10a-26 (5.7A), 10a-27 (4.5D), and 10a-26 (4.5D) LNPs.)

In the case of `CCCCCCCCC(CCCCCC)C(=O)OCCCCCCN(CCCCCCOC(=O)C(CCCCCC)CCCCCCCC)CCCn1ccnc1` (stereo not drawn) [Lipid 10a-26, ((3-(1H-imidazol-1-yl)propyl)azanediyl)bis(hexane-6,1-diyl) bis(2-hexyldecanoate)], the “ex vivo IVIS analysis of tissues, overall expression” value in the experiment on CD-1 or c57BL/6J mice (0.5 mg/kg RNA intravenously) was “increased overall expression”. Moreover, in the experiment on CD-1 or c57BL/6J mice (0.5 mg/kg RNA intravenously, six hours, compared to LNPs made with lipids 22-S14 and 93-S14), the whole-body total flux entry is “increased whole-body total flux”. The “spleen to liver ratios” value in the experiment on CD-1 or c57BL/6J mice was “maintaining the desired spleen to liver ratios”. In the experiment with splenic immune cells, the “delivery of circular RNAs to splenic immune cell subsets” value (“delivery of circular RNAs” below) is “effective at delivering circular RNAs to many splenic immune cell subsets”; the “proportion of splenic immune cells expressing tdTomato (transfection)” value is “significantly higher myeloid and T cell transfection”.
With `CCCCCCCCC(CCCCCC)C(=O)OCCCCCCN(CCCCCCOC(=O)C(CCCCCC)CCCCCCCC)CCCn1ccnc1C` (stereo not drawn) [Lipid 10a-27, ((3-(2-methyl-1H-imidazol-1-yl)propyl)azanediyl)bis(hexane-6,1-diyl) bis(2-hexyldecanoate)], in the experiment on primary human T cells, the Firefly luminescence entry was “generally produced higher luminescence”. Moreover, in the experiment on splenic immune cells, the “delivery of circular RNAs” value is recorded as “effective at delivering circular RNAs to many splenic immune cell subsets”. The “proportion of splenic immune cells expressing tdTomato (transfection)” value in the experiment on splenic immune cells (0.5 mg/kg) is “significantly higher myeloid and T cell transfection; also recorded: transfect significantly more splenic immune cells”.
As for `CCCCCCCCCOC(=O)CCCCCCCN(CCCCCCCC(=O)OC(CCCCCCCC)CCCCCCCC)CCCn1ccnc1` [Lipid 10a-53, heptadecan-9-yl 8-((3-(1H-imidazol-1-yl)propyl)(8-(nonyloxy)-8-oxooctyl)amino)octanoate], the “spleen to liver ratios” value in the experiment on CD-1 or c57BL/6J mice is recorded as “maintaining the desired spleen to liver ratios”.
For the molecule `CCCCCCCCCOC(=O)CCCCCCCN(CCCCCCCC(=O)OC(CCCCCCCC)CCCCCCCC)CCCn1ccnc1C` [Lipid 10a-54, heptadecan-9-yl 8-((3-(2-methyl-1H-imidazol-1-yl)propyl)(8-(nonyloxy)-8-oxooctyl)amino)octanoate], the “spleen to liver ratios” value with CD-1 or c57BL/6J mice is given as “maintaining the desired spleen to liver ratios”.
On to `CCCCCCCCCOC(=O)CCCCCCCN(CCO)CCCCCCCC(=O)OC(CCCCCCCC)CCCCCCCC` [Lipid 10b-15], for which, in the experiment on CD-1 or c57BL/6J mice, the “spleen to liver ratios” value is given as “maintaining the desired spleen to liver ratios”. Besides, the “delivery of circular RNAs” value in the experiment on splenic immune cells is on record as “effective at delivering circular RNAs to many splenic immune cell subsets”.
